Results: PMC9974930 (Journal of medicinal chemistry, 2023)

Experiments:
[1] = Microsomal stability in rat liver microsomes
CFA-induced AIA mice = experiment: CFA-induced arthritis; format: in vivo, Kunming mice; details: 10 mg / kg ip
[2] = system: COX-2, sEH, NOS-2 and VCAM; experiment: Western blot of inflammatory factors in plasma, LPS-induced sepsis model; format: in vivo, C57BL/6 mice; details: 5 mg / kg ip
[3] = Pharmacokinetic study in vivo
[4] = Microsomal stability in human liver microsomes
[5] = biological target: T1, recombinant human sEH (HsEH) (Homo sapiens, UniProt P34913); experiment: biochemical
T1 sequence (P34913 1-555): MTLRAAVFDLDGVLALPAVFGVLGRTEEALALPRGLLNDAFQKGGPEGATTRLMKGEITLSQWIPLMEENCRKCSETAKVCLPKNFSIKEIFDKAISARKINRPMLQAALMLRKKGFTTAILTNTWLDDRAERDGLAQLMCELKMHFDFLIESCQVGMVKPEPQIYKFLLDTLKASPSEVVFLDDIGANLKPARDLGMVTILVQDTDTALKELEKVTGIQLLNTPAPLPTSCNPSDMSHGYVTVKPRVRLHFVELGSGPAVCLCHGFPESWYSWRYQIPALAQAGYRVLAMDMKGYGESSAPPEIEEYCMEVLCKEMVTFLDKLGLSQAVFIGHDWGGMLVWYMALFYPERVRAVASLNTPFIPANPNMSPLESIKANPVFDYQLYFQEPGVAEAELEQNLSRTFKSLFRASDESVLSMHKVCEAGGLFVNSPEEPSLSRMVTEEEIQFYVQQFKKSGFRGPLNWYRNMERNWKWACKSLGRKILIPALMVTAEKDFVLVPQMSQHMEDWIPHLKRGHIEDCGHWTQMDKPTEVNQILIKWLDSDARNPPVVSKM

IL-6, MCP-5 and TNF-α = experiment: ELISA of plasma inflammatory factors, LPS-induced sepsis model; format: in vivo, C57BL/6 mice; details: 5 mg / kg ip
LPS-induced sepsis model = experiment: LPS-induced sepsis model, survival; format: in vivo, C57BL/6 mice; details: 28 hours; LPS 30 mg / kg ip; 5 mg / kg ip at 4 h and 12 h later
murine sEH (MsEH) = biological target: T2, murine sEH (MsEH) (Mus musculus, UniProt P34914); experiment: sEH inhibition, fluorescent-based assay with PHOME substrate; format: biochemical
T2 sequence (P34914 1-554): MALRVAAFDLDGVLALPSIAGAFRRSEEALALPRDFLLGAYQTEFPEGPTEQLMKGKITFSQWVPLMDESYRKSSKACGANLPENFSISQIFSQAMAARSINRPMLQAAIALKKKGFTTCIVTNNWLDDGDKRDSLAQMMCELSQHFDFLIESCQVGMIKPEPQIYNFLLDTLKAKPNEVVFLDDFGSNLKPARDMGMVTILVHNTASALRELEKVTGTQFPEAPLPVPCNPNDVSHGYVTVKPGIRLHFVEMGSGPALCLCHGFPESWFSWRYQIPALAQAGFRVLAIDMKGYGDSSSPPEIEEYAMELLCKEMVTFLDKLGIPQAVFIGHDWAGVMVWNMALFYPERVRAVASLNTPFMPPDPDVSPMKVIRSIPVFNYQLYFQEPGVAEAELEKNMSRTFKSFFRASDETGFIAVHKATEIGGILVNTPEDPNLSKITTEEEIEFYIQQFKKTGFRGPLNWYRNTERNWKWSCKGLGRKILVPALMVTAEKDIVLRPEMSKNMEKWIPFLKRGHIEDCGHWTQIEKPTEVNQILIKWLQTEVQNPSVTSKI

[6] = both, Sprague-Dawley, rat, in vivo, iv, 10 mg/kg

SMILES: CCC(=O)N1CCCN(C(=O)C2CCCN(Cc3ccc(NC(=O)N[C@@]45C[C@@H]6C[C@@](C)(C[C@@](C)(C6)C4)C5)c(F)c3)C2)CC1 (stereo partly drawn) [G1, 1-((1r,3R,5S,7r)-3,5-Dimethyladamantan-1-yl)-3-(2-fluoro-4-((3-(4-propionyl-1,4-diazepane-1-carbonyl)piperidin-1-yl)methyl)phenyl)urea]
- Mean concentration of G1 in microsomal buffer ([1]; time 0): 100 µg/mL
- Mean concentration of G1 in microsomal buffer ([1]; time 10): 75.04 µg/mL
- Mean concentration of G1 in microsomal buffer ([1]; time 30): 66.63 µg/mL
- Mean concentration of G1 in microsomal buffer ([1]; time 60): 62.01 µg/mL
- effect on paw swelling rate, in words (CFA-induced AIA mice): significantly reduced the swelling rate of mouse paw thickness
- increase of pain valve (pain threshold, hot plate) (CFA-induced AIA mice): 70.10%
- reduced foot swelling, thickness (CFA-induced AIA mice): 21.4%
- reduced foot swelling, width (CFA-induced AIA mice): 6.98%
- body weight change (CFA-induced AIA mice; 24 h of drug treatment): increase in body weight
- effect on pain threshold, in words (CFA-induced AIA mice; hot plate): faster onset of analgesia than celecoxib
- time after administration at which analgesic effect began (CFA-induced AIA mice; hot plate): 10 min
- time of peak analgesic effect (CFA-induced AIA mice; hot plate): 2 h
- COX-2 expression levels [2]: higher than in the control group
- NOS-2 expression [2]: reduced NOS-2 expression
- expression of sEH ([2]; compared to the model group): significantly reduced the expression of sEH
- vascular cell adhesion molecule (VCAM) ([2]; compared to the solvent group): little change
- AUC(0-inf) [3, 6]: 0.0115 µM·h
- clearance [3, 6]: 4.83 mL/min/kg
- AUC(0-inf) ([3]; both, Sprague-Dawley, rat, in vivo, po, 50 mg/kg): 0.0102 µM·h
- CL ([3]; rats, po 50 mg / kg): 28.3 mL/min/kg
- VZ ([3]; rats, po 50 mg / kg): 13.12 L/kg
- Mean concentration of G1 in microsomal buffer ([4]; time 0): 100 µg/mL
- Mean concentration of G1 in microsomal buffer ([4]; time 10): 81.12 µg/mL
- Mean concentration of G1 in microsomal buffer ([4]; time 30): 74.76 µg/mL
- Mean concentration of G1 in microsomal buffer ([4]; time 60): 68.78 µg/mL
- LLE (ligand lipophilicity efficiency) [5]: 7.553
- IL-6 levels (IL-6, MCP-5 and TNF-α): significant reduction in IL-6 levels
- TNF-α levels (IL-6, MCP-5 and TNF-α): considerably lowered TNF-α levels
- effect of lowering MCP-5 (IL-6, MCP-5 and TNF-α): lower than dexamethasone

SMILES: C[C@@H]1C[C@H]2[C@@H]3CCC4=CC(=O)C=C[C@]4(C)[C@@]3(F)[C@@H](O)C[C@]2(C)[C@@]1(O)C(=O)CO [dexamethasone, reference compound]
- survival rate (LPS-induced sepsis model): all of the mice in the dexamethasone group died
- COX-2 expression levels [2]: higher than in the control group
- IL-6 levels (IL-6, MCP-5 and TNF-α): significant reduction in IL-6 levels
- TNF-α levels (IL-6, MCP-5 and TNF-α): considerably lowered TNF-α levels

SMILES: C[C@]12C[C@@H]3C[C@](C)(C1)C[C@@](NC(=O)Nc1ccc(C(=O)N4CCC(C(=O)N5CCN(CCO)CC5)CC4)cc1F)(C3)C2 [A4, 1-((1r,3R,5S,7r)-3,5-Dimethyladamantan-1-yl)-3-(2-fluoro-4-(4-(4-(2-hydroxyethyl)piperazine-1-carbonyl)piperidine-1-carbonyl)phenyl)urea]
- IC50 (murine sEH (MsEH)): 0.32 nM
- IC50 [5]: 12.5 nM
